Source: US20050203156A1, “Hydantoins having RNase modulatory activity” (Wyeth, priority 2004, published 2005)

Experiments:
[1] = biological target: T1, HIV reverse transcriptase (RNase H activity) (Human immunodeficiency virus type 1 group M subtype B, UniProt P04585); experiment: Inhibition of RNase H / HIV reverse transcriptase (fluorescent probe-target hybrid assay); assay type: biochemical; details: Table I
T1 construct: HIV reverse transcriptase has an RNase H domain at the C-terminus of its p66 subunit
From the text: RNase H is an enzyme responsible for the removal of RNA primers from leading and lagging strands during DNA synthesis. It is an important enzyme for the replication of bacterial, viral and human genomes. HIV reverse transcriptase has an RNase H domain at the C-terminus of its p66 subunit. […] The ability of the compounds of the present invention to inhibit RNase H, and more particularly HIV reverse transcriptase, may be measured or determined by any means known in the art.
Preferably, the RNase H/HIV reverse transcriptase modulatory activity of the compounds of the present invention may be determined by the methods described in a copending U.S. provisional patent Application No. 60/436,125, filed Dec. 19, 2002 and PCT Publication No. WO 2004/059012, filed Dec. 22, 2003, published Jul. 15, 2004, entitled ASSAY FOR RNase ACTIVITY of Olson et al., incorporated herein by reference in their entirety. Specifically, the modulatory activity of a hydantoin derivative of the present invention may be determined by hybridizing a target nucleic acid to a fluorescently labeled oligonucleotide probe complementary to the target nucleic acid and containing a fluorophor at one terminus and a quenching group at the other terminus to obtain a probe-target hybrid, wherein (i) the unhybridized probe adopts a conformation that places the fluorophor and quencher in such proximity that the quencher quenches the fluorescent signal of the fluorophor, and (ii) the formation of the probe-target hybrid causes sufficient separation of the fluorophor and quencher to reduce quenching of the fluorescent signal of the fluorophor. Next, a first and second sample containing the probe-target hybrid are prepared. The probe-target hybrid of the first sample is then contacted with an RNase H enzyme (such as HIV reverse transcriptase) in an amount sufficient to selectively cleave the target nucleic acid and thereby release the intact probe. The probe-target hybrid of the second sample is also contacted with the RNase H enzyme in an amount sufficient to selectively cleave the target nucleic acid and thereby release the intact probe in the presence of a hydantoin derivative of the present invention. The release of the probe in each sample may then be detected by measuring the […] in the fluorescent signal of the fluorophor as compared to the signal of the probe-target hybrid. A comparison of the rate of the decrease in the fluorescent signal of the fluorophor in the two samples is made to determine whether there is a difference in the rate of the decrease in the two samples. […] This method is also useful to identify hydantoin derivatives of the present invention, wherein candidate hydantoin derivatives are screened for their ability to modulate RNase/HIV reverse transcriptase activity.

[2] = biological target: T2, HIV reverse transcriptase (RDDP polymerase activity) (Human immunodeficiency virus type 1 group M subtype B, UniProt P04585); experiment: RNA dependent DNA polymerase (RDDP) activity of HIV RT, polyrA-oligodT12-18 / 33P TTP incorporation; assay type: biochemical
T2 construct: HIV Reverse transcriptase (RT) 66/p51; purchased Worthington

SMILES	IC50 [1] [µM]	IC50 [2] [µM]
O=C(c1ccccc1)N1C(=O)N2CCc3ccccc3C2(c2ccccc2)C1=O (stereo not shown) [2-benzoyl-10b-phenyl-6,10b-dihydro-5H-imidazo[5,1-a]isoquinoline-1,3-dione]	63	–
O=C1NC(c2ccccc2)(c2ccccc2)C(=O)N1CCCBr [3-(3-bromopropyl)-5,5-diphenyl-2,4-imidazolidinedione]	56	> 146
Cc1cc(C(=O)N2C(=O)NC(C)(c3ccccc3)C2=O)ccc1Cl (stereo not shown) [3-(4-chloro-3-methylbenzoyl)-5-methyl-5-phenylimidazolidine-2,4-dione]	100	–
Cc1ccc(C(=O)C(C)N2C(=O)NC(C)(c3ccccc3)C2=O)cc1Cl (stereo not shown) [3-[2-(3-chloro-4-methylphenyl)-1-methyl-2-oxoethyl]-5-methyl-5-phenyl-2,4-imidazolidinedione]	51	> 103
CC1(c2ccccc2)NC(=O)N(C(=O)/C=C/c2ccc(Cl)c(Cl)c2)C1=O (stereo not shown) [3-[(2E)-3-(3,4-dichlorophenyl)prop-2-enoyl]-5-methyl-5-phenylimidazolidine-2,4-dione]	52	> 107
CC1(c2ccccc2)NC(=O)N(C(=O)/C=C/c2ccc(F)c(C(F)(F)F)c2)C1=O (stereo not shown) [3-{(2E)-3-[4-fluoro-3-(trifluoromethyl)phenyl]prop-2-enoyl}-5-methyl-5-phenylimidazolidine-2,4-dione]	99	> 115
CCC1(c2ccc(C)cc2)N=C(O)N=C1O (stereo not shown) [4-ethyl-4-(4-methylphenyl)-4H-imidazole-2,5-diol]	4	> 184
C=CN1C(=O)NC(C)(C)C1=O [5,5-dimethyl-3-vinyl-imidazolidine-2,4-dione]	50	> 107
O=C1NC(=O)C(=Cc2cc(Cl)cc(Cl)c2O)N1 [5-(3,5-Dichloro-2-hydroxy-benzylidene)-imidazolidine-2,4-dione]	57	> 102
O=C1NC(=O)C(=Cc2cc(Br)cc(Br)c2O)N1 [5-(3,5-dibromo-2-hydroxy-benzylidene)-imidazolidine-2,4-dione]	13	> 111
CCC1(c2ccc(Br)cc2)NC(=O)NC1=O (stereo not shown) [5-(4-bromo-phenyl)-5-ethyl-imidazolidine-2,4-dione]	64	–
Cc1ccc(C2(C3CC3)NC(=O)NC2=O)cc1C (stereo not shown) [5-cyclopropyl-5-(3,4-dimethyl-phenyl)-2,4-imidazolidinedione]	41	> 122
CC1(c2ccccc2)NC(=O)N(C(=O)/C=C/c2ccccc2)C1=O (stereo not shown) [5-methyl-5-phenyl-3-[(2E)-3-phenylprop-2-enoyl]imidazolidine-2,4-dione]	46	> 260
CC1(C)SC2C(NC(=O)C(NC(=O)CN3C(=O)NC(c4ccccc4)(c4ccccc4)C3=O)c3ccccc3)C(=O)N2C1C(=O)O (stereo not shown) [6-[{[{(2,5-dioso-4,4-diphenylimidazolidin-1-yl)acetyl]amino}(phenyl)acetyl]amino}-3,3-dimethyl-7-oxo-4-thia-1-azabicyclo[3.2.0]heptane-2-carboxylic acid]	4	> 62
C[C@]1(c2ccccc2)NC(=O)N(C(=O)/C=C/c2ccc(C(F)(F)F)cc2)C1=O [(5R)-5-methyl-5-phenyl-3-{(2E)-3-[4(trifluoromethyl)phenyl]prop-2-enoyl]imidizolidine-2,4-dione]	58	> 105
CC[C@@]1(c2ccc(C)cc2)NC(=O)NC1=O [(5S)-5-ethyl-5-(4-methylphenyl)imidazolidine-2,4-dione]	2	> 180
C[C@@]1(c2ccccc2)NC(=O)N(C(=O)/C=C/c2ccc(C(F)(F)F)cc2)C1=O [(5S)-5-methyl-5-phenyl-3-{(2E)-3-[4-(trifluoromethyl)phenyl]prop-2-enoyl}imidazolidine-2,4-dione]	98	> 100
Cc1cn([C@H]2C[C@H](N=[N+]=[N-])[C@@H](CO)O2)c(=O)[nH]c1=O [AZT, reference compound]	–	< 0.2
CC(C)(C)OC(=O)N1C(=O)N(C(=O)OC(C)(C)C)C2(CCN(Cc3ccccc3)CC2)C1=O [di(tert-butyl) 8-benzyl-2,4-dioxo-1,3,8-triazaspiro[4.5}decane-1,3-dicarboxylate]	87	> 103
